Measurements taken from article PMC10693969 (Parasites, Hosts and Diseases, 2023).
Where “and” joins values, the source holds several entries; their conditions need not be identical. Identical values can stand only once. Like-named read-outs stand apart in the source and are kept apart here.

Key:
[1] = system: Naegleria fowleri trophozoites (Carter NF69 strain, ATCC 30215); assay: In vitro anti-N. fowleri activity, trophozoite viability; assay type: cell-based; settings: for IC50: mean±SD of 3 independent experiments; for SI, sensitivity index (CC50 C6 glial cells / IC50 N. fowleri): ratio CC50 C6 glial cells / IC50 N. fowleri; for antiamoebic activity against N. fowleri (in words): in vitro
[2] = system: A. castellanii (ATCC-30868) trophozoites; assay: In vitro anti-Acanthamoeba activity, A. castellanii trophozoite viability; assay type: cell-based; settings: for IC50: mean±SD of 3 independent experiments; for SI, sensitivity index (CC50 C6 glial cells / IC50 A. castellanii): ratio CC50 C6 glial cells / IC50 A. castellanii; for antiamoebic activity against A. castellanii (in words): in vitro
[3] = system: A. polyphaga (ATCC-30461) trophozoites; assay: In vitro anti-Acanthamoeba activity, A. polyphaga trophozoite viability; assay type: cell-based; settings: for IC50: mean±SD of 3 independent experiments; for SI, sensitivity index (CC50 C6 glial cells / IC50 A. polyphaga): ratio CC50 C6 glial cells / IC50 A. polyphaga; for antiamoebic activity against A. polyphaga (in words): in vitro
[4] = Cytotoxicity against C6 glial cells; assay type: cell-based, rat; settings: rat, C6 glial cells
[5] = system: C6 rat glial cells (ATCC CCL-107); assay: Cytotoxicity against C6 glial cells; assay type: cell-based; settings: read-out: C6 glial cells (CC50 ±SD); C6 rat glial cells, 0–400 μM; mean±SD of 3 independent assays
[6] = Naegleria fowleri, ATCC30215, 48 h, read-out: N. fowleri (IC50 ±SD, μM), trophozoites, 0–400 μM, 37°C, 48 h
[7] = Acanthamoeba castellanii, ATCC30868, 48 h, read-out: A. castellanii (IC50 ±SD, μM), trophozoites, 0–400 μM, 25°C, 48 h
[8] = read-out: A. castellanii (IC50 ±SD), trophozoites, 0–400 μM, 25°C, 48 h
[9] = Acanthamoeba polyphaga, ATCC30461, 48 h, read-out: A. polyphaga (IC50 ±SD, μM), trophozoites, 0–400 μM, 25°C, 48 h
[10] = read-out: A. polyphaga (IC50 ±SD), trophozoites, 0–400 μM, 25°C, 48 h
[11] = read-out: N. fowleri (IC50 ±SD), trophozoites, 0–400 μM, 37°C, 48 h
[12] = trophozoites, listed as berberine

Molecule | IC50 [1, 6] [µM] | SI, sensitivity index (CC50 C6 glial cells / IC50 N. fowleri) [1] | IC50 [2, 7] [µM] | SI, sensitivity index (CC50 C6 glial cells / IC50 A. castellanii) [2] | IC50 [2, 8] [µM] | IC50 [3, 9] [µM] | SI, sensitivity index (CC50 C6 glial cells / IC50 A. polyphaga) [3] | IC50 [3, 10] [µM] | CC50 [4] [µM] | IC50 [1, 11] [µM] | antiamoebic activity against A. castellanii (in words) ([2]; trophozoites) | antiamoebic activity against A. polyphaga (in words) ([3]; trophozoites) | also measured
Oc1cc(O)c2c(c1)O[C@H](c1ccc(O)c(O)c1)[C@H](O)C2 [(−)-Epicatechin, (−)-epicatechin] | 102.6 ± 0.97 | 3.11 | < 50 | 9.55 | 33.4 ± 0.68 | < 50 | 12.73 | 25.02 ± 0.14 | 318.6 ± 0.82 | – | – | – | antiamoebic activity against N. fowleri (in words) ([1]; trophozoites): did not show significative anti-N. fowleri activities; SI, sensitivity index (CC50 C6 glial cells / IC50 A. castellanii) ([2]; listed as (−)-epicatechin): > 8; SI, sensitivity index (CC50 C6 glial cells / IC50 A. polyphaga) ([3]; listed as (−)-epicatechin): > 8
Oc1cc(O)c2c(c1)O[C@H](c1cc(O)c(O)c(O)c1)[C@H](O)C2 [(−)-Epigallocatechin, (−)-epigallocatechin] | – | 2.44 | – | 8.68 | 32.1 ± 1.03 | – | 11.55 | 24.16 ± 0.16 | – | 114.6 ± 0.48 | – | – | antiamoebic activity against N. fowleri (in words) ([1]; trophozoites): did not show significative anti-N. fowleri activities; SI, sensitivity index (CC50 C6 glial cells / IC50 A. castellanii) ([2]; listed as (−)-epigallocatechin): > 8; IC50 ([2]; read-out: A. castellanii (IC50 ±SD), trophozoites, 0–400 μM, 25°C, 48 h, listed as (−)-epigallocatechin): < 50 µM; SI, sensitivity index (CC50 C6 glial cells / IC50 A. polyphaga) ([3]; listed as (−)-epigallocatechin): > 8; IC50 ([3]; read-out: A. polyphaga (IC50 ±SD), trophozoites, 0–400 μM, 25°C, 48 h, listed as (−)-epigallocatechin): < 50 µM; CC50 [5]: 279 ± 0.3 µM
C=C1CC/C=C(\C)CC[C@@H]2[C@@H]1CC2(C)C [(−)-trans-Caryophyllene, (−)-trans-caryophyllene] | 84.78 ± 0.65 | 2.60 | 65.1 ± 1.42 | 3.39 | – | 44.8 ± 1.41 | 4.92 | – | 220 ± 2.42 | – | – | – | –
C[C@@H]1O[C@@H](Oc2c(-c3ccc(O)cc3)oc3cc(O)cc(O)c3c2=O)[C@H](O)[C@H](O)[C@H]1O [Afzelin, afzelin] | > 230 | – | > 230 | – | – | > 230 | – | – | > 230 | – | did not exhibit potential or selective antiamoebic activity | did not exhibit potential or selective antiamoebic activity | –
CC[C@H]1OC(=O)[C@H](C)[C@@H](O[C@H]2C[C@@](C)(OC)[C@@H](O)[C@H](C)O2)[C@H](C)[C@@H](O[C@@H]2O[C@H](C)C[C@H](N(C)C)[C@H]2O)[C@](C)(O)C[C@@H](C)CN(C)[C@H](C)[C@@H](O)[C@]1(C)O [Azithromycin, Azithromycin dihydrate, reference compound] | 14.7 ± 1.65 | 5.88 | 12.1 ± 0.2 | 7.12 | – | 4.12 ± 0.11 | 20.93 | – | 86.2 ± 0.93 | – | – | – | –
COc1ccc2cc3[n+](cc2c1OC)CCc1cc2c(cc1-3)OCO2 [Berberine, berberine] | > 260 | – | > 260 | – | – | > 260 | – | – | 159.7 ± 1.23 | – | did not affect | did not affect | antiamoebic activity against N. fowleri (in words) ([1]; trophozoites): did not affect; antiamoebic activity against A. castellanii (in words) [2, 12]: did not exhibit potential or selective antiamoebic activity; antiamoebic activity against A. polyphaga (in words) [3, 12]: did not exhibit potential or selective antiamoebic activity
C=C1C(=O)O[C@@H]2/C=C(\C)CC/C=C(\C)CC[C@@H]12 [Costunolide, costunolide] | 65.56 ± 0.58 | 2.92 | < 50 | 5.97 | 32 ± 1.14 | < 50 | 5.44 | 35.1 ± 0.74 | 191.2 ± 1.18 | – | – | – | –
O=c1c(-c2ccc(O)cc2)coc2cc(O)cc(O)c12 [Genistein, genistein] | 157.4 ± 0.57 | 0.66 | > 370 | – | – | > 370 | – | – | 104 ± 1.08 | – | did not exhibit potential or selective antiamoebic activity | did not exhibit potential or selective antiamoebic activity | –
O=c1c(O)c(-c2ccc(O)cc2)oc2cc(O)cc(O)c12 [Kaempferol, kaempferol] | < 30 | 12.00 | – | 15.43 | 21.6 ± 1.28 | < 50 | 11.67 | 28.6 ± 1.17 | 333.8 ± 0.99 | 27.8 ± 0.33 | – | – | SI, sensitivity index (CC50 C6 glial cells / IC50 N. fowleri) ([1]; listed as kaempferol): > 7 and > 8; IC50 ([1]; read-out: N. fowleri (IC50 ±SD), trophozoites, 0–400 μM, 37°C, 48 h, listed as kaempferol): < 40 µM; SI, sensitivity index (CC50 C6 glial cells / IC50 A. castellanii) ([2]; listed as kaempferol): > 8; IC50 ([2]; read-out: A. castellanii (IC50 ±SD), trophozoites, 0–400 μM, 25°C, 48 h, listed as kaempferol): < 40 µM; SI, sensitivity index (CC50 C6 glial cells / IC50 A. polyphaga) ([3]; listed as kaempferol): > 8; IC50 ([3]; read-out: A. polyphaga (IC50 ±SD), trophozoites, 0–400 μM, 25°C, 48 h, listed as kaempferol): < 40 µM
O=c1cc(-c2ccc(O)c(O)c2)oc2cc(O)cc(O)c12 [Luteolin, luteolin] | < 30 | – | > 350 | – | – | 40.2 ± 0.47 | – | – | > 350 | 27.4 ± 0.61 | not effective | effective | –
CCCCCCCCCCCCCCCCOP(=O)([O-])OCC[N+](C)(C)C [Miltefosine, miltefosine, reference compound] | 153.3 ± 1.3 | >1.60 | 213.2 ± 1.22 | >1.15 | – | 227.5 ± 0.36 | >1.08 | – | > 245 | – | – | – | –
O=c1c(O)c(-c2ccc(O)c(O)c2)oc2cc(O)cc(O)c12 [Quercetin, quercetin] | > 330 | – | > 330 | – | – | 320.8 ± 0.33 | >1.03 | – | > 330 | – | did not exhibit potential or selective antiamoebic activity | did not exhibit potential or selective antiamoebic activity | –
O=C(/C=C/c1ccc(O)c(O)c1)O[C@H](Cc1ccc(O)c(O)c1)C(=O)O [Rosmarinic acid, rosmarinic acid] | 77.7 ± 0.97 | >3.57 | < 50 | >8.77 | 31.66 ± 0.31 | – | >12.38 | 22.4 ± 0.78 | > 278 | – | – | – | antiamoebic activity against N. fowleri (in words) ([1]; trophozoites): did not show significative anti-N. fowleri activities; SI, sensitivity index (CC50 C6 glial cells / IC50 A. castellanii) ([2]; listed as rosmarinic acid): > 8; SI, sensitivity index (CC50 C6 glial cells / IC50 A. polyphaga) ([3]; listed as rosmarinic acid): > 8; IC50 ([3]; read-out: A. polyphaga (IC50 ±SD), trophozoites, 0–400 μM, 25°C, 48 h, listed as rosmarinic acid): < 50 µM
(+)-pinostrobin | – | – | – | – | > 370 | – | – | > 370 | – | > 370 | did not exhibit potential or selective antiamoebic activity | did not exhibit potential or selective antiamoebic activity | CC50 [5]: > 370 µM
(±)-catechin hydrate | – | – | – | – | > 345 | – | – | > 345 | – | > 345 | did not exhibit potential or selective antiamoebic activity | did not exhibit potential or selective antiamoebic activity | CC50 [5]: > 345 µM
